The values that follow come from ChEMBL document CHEMBL1201862, “PubChem BioAssay data set” (2004).

Each structure is given as a SMILES string.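 Following 48 hours of exposure in 96-well plates, responses at five concentrations were used to interpolate endpoints linearly. Here, GI50 denotes the concentration required for 50% inhibition of growth.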 Calls of active or inactive are those of the source. No stated cut-off is given here; in the data, active = GI50 up to about 1.1 µM and inactive = higher.

Test systems include OVCAR-5; UACC-62; RXF 393; NCI-H226; CAKI-1; MCF7; SK-MEL-2; RPMI-8226; M14; DU-145; HOP-92; MOLT-4; HCT-116; UACC-257; MDA-MB-435; KM12; EKVX; LOX IMVI; UO-31; SR.
Common to all, as to assay: inhibition of tumour cell growth, NCI panel, 48 h

`O=C(N/N=C(COc1ccc(Cl)cc1)\N=C\c1cccnc1)c1ccncc1`: the GI50 with OVCAR-5 was > 100 µM (inactive); in the assay with UACC-62, 69 µM (inactive); in the assay with RXF 393, 77.3 µM (inactive); with NCI-H226, 68.2 µM (inactive); in the assay with CAKI-1 it was > 100 µM (inactive); with MCF7, > 100 µM (inactive). Also, the GI50 was > 100 µM (inactive) in the assay on SK-MEL-2; 32.5 µM (inactive) in the assay on RPMI-8226; > 100 µM (inactive) in the assay with M14; > 100 µM (inactive) in the assay on DU-145; 24.2 µM (inactive) in the assay on HOP-92; 84.3 µM (inactive) in the assay on MOLT-4. Also, the GI50 was > 100 µM (inactive) in the assay with HCT-116; 99.5 µM (inactive) with UACC-257; 26.3 µM (inactive) with MDA-MB-435; 71 µM (inactive) in the assay on KM12; > 100 µM (inactive) in the assay with EKVX; > 100 µM (inactive) in the assay with LOX IMVI.
Consider `C1CNOCCCONCCCNOCCCONC1`, for which the GI50 with OVCAR-5 was > 100 µM (inactive); in the assay with UACC-62, > 100 µM (inactive); in the assay with RXF 393, 20.2 µM (inactive); in the assay on NCI-H226, > 100 µM (inactive); with UO-31, > 100 µM (inactive); in the assay with CAKI-1, > 100 µM (inactive). For the same compound, the GI50 in the assay with MCF7 is 37.5 µM (inactive); in the assay on SK-MEL-2, 25.1 µM (inactive); with M14, 72.1 µM (inactive); with DU-145 it was 58.9 µM (inactive); with HOP-92 it was 26.1 µM (inactive); with MOLT-4 it was > 100 µM (inactive). For the same compound, the GI50 in the assay with HCT-116 is > 100 µM (inactive); with UACC-257, 41.7 µM (inactive); in the assay on MDA-MB-435, > 100 µM (inactive); in the assay with KM12 it was > 100 µM (inactive); in the assay on EKVX it was 50.2 µM (inactive); in the assay with LOX IMVI it was > 100 µM (inactive).
As to `COC1CC(OC2C(C)OC(OC3C(C)OC(OC4C(C)OC(O[C@H]5CC[C@@]6(C)C(=CC[C@]7(O)[C@@H]6C[C@@H](OC(C)=O)[C@@]6(C)[C@]7(O)CC[C@@]6(O)C(C)=O)C5)CC4OC)CC3OC)CC2OC)OC(C)C1O` (some centres not stated), the GI50 with OVCAR-5, in the assay on UACC-62, in the assay with NCI-H226, in the assay with UO-31, in the assay with SR and in the assay on CAKI-1 was > 25 µM (inactive) in each case. The GI50 with MCF7, with SK-MEL-2, in the assay with RPMI-8226, in the assay on M14, with DU-145 and in the assay with HOP-92 was > 25 µM (inactive) each time. Moreover, the GI50 with MOLT-4, in the assay on HCT-116, in the assay on UACC-257, in the assay on MDA-MB-435, with KM12 and with EKVX was > 25 µM (inactive) throughout. For the same compound, the GI50 in the assay on LOX IMVI is > 25 µM (inactive).
As to `N#CCc1nc(C#N)c(N)o1`, the GI50 in the assay with OVCAR-5, in the assay on UACC-62, in the assay with RXF 393, in the assay with NCI-H226, in the assay on UO-31 and in the assay with SR was > 100 µM (inactive) throughout. Moreover, the GI50 in the assay with CAKI-1, with MCF7, in the assay with SK-MEL-2, in the assay with M14, in the assay on DU-145 and in the assay on HOP-92 was > 100 µM (inactive) each time. The GI50 in the assay on MOLT-4, with HCT-116, in the assay on UACC-257, in the assay on MDA-MB-435 and in the assay with KM12 was > 100 µM (inactive) throughout.
For `OC1OC(c2ccc[nH]2)C(F)(F)C(F)(F)C1(F)F` (configuration not stated), the GI50 in the assay on OVCAR-5 is > 100 µM (inactive); in the assay on UACC-62, > 100 µM (inactive); with RXF 393 it was > 100 µM (inactive); in the assay with NCI-H226 it was > 100 µM (inactive); in the assay on UO-31 it was 97.7 µM (inactive); with CAKI-1, 87.3 µM (inactive). Also, the GI50 with MCF7 is > 100 µM (inactive); in the assay on SK-MEL-2, > 100 µM (inactive); in the assay on RPMI-8226, > 100 µM (inactive); in the assay with M14, > 100 µM (inactive); with DU-145 it was > 100 µM (inactive); in the assay with HOP-92, 68.4 µM (inactive). In addition, the GI50 with MOLT-4, with HCT-116, with UACC-257, in the assay on MDA-MB-435, in the assay with KM12 and with EKVX was > 100 µM (inactive) in each case. In addition, in the assay with LOX IMVI, the GI50 was > 100 µM (inactive).
As for `CN(C)c1ccc(/C=C2\N=C(NNc3ccccc3)NC2=O)cc1`, the GI50 in the assay on OVCAR-5 was 31.8 µM (inactive); with UACC-62 it was 28.8 µM (inactive); in the assay with RXF 393, 18.7 µM (inactive); in the assay with UO-31, 31 µM (inactive); in the assay with CAKI-1, 26.2 µM (inactive); in the assay with MCF7 it was 17.9 µM (inactive). For the same compound, the GI50 with SK-MEL-2 is 18.7 µM (inactive); in the assay with RPMI-8226, 16 µM (inactive); in the assay on M14, 37.3 µM (inactive); in the assay with DU-145 it was 28.4 µM (inactive); in the assay with HOP-92 it was 17.3 µM (inactive); with MOLT-4 it was < 0.01 µM (active). For the same compound, the GI50 is 22.9 µM (inactive) in the assay with HCT-116; 15.6 µM (inactive) in the assay on UACC-257; 21.5 µM (inactive) in the assay with MDA-MB-435; 13.2 µM (inactive) in the assay with KM12; 19 µM (inactive) in the assay with EKVX; 27.8 µM (inactive) with LOX IMVI.
Regarding `COc1c2cc([N+](=O)[O-])cc1CNC(=O)CN1CCOCCOCCN(CCOCCOCC1)CC(=O)NC2`, the GI50 in the assay with OVCAR-5, in the assay on UACC-62, with RXF 393, in the assay on NCI-H226, in the assay on UO-31 and in the assay on CAKI-1 was > 100 µM (inactive) in each case. Also, the GI50 is > 100 µM (inactive) in the assay on MCF7; > 100 µM (inactive) with SK-MEL-2; 56.4 µM (inactive) with RPMI-8226; > 100 µM (inactive) in the assay on M14; > 100 µM (inactive) in the assay on DU-145; > 100 µM (inactive) in the assay with HOP-92. The GI50 in the assay on MOLT-4, with HCT-116, in the assay with UACC-257, in the assay with MDA-MB-435, in the assay with KM12 and in the assay on EKVX was > 100 µM (inactive) throughout. Also, the GI50 in the assay with LOX IMVI is > 100 µM (inactive).
Take `COc1ccc2c(c1OC)C(C(Cl)(Cl)Cl)N1CCc3cc4c(cc3C1=C2)OCO4` (configuration not stated): the GI50 in the assay on OVCAR-5 is 72.6 µM (inactive); in the assay on UACC-62, 11.8 µM (inactive); with NCI-H226, 10.9 µM (inactive); with UO-31, 35.6 µM (inactive); with CAKI-1 it was 40.8 µM (inactive); with MCF7, 28.1 µM (inactive). Further, the GI50 was 17.2 µM (inactive) with SK-MEL-2; 2.08 µM (inactive) in the assay with RPMI-8226; 28.4 µM (inactive) with M14; 16.3 µM (inactive) in the assay with DU-145; 23.9 µM (inactive) in the assay on HOP-92; 16 µM (inactive) with MOLT-4. The GI50 with HCT-116 is 10.6 µM (inactive); in the assay on UACC-257, 7.16 µM (inactive); in the assay on MDA-MB-435 it was 11.1 µM (inactive); with KM12, 7.6 µM (inactive); in the assay with EKVX it was 42.7 µM (inactive); with LOX IMVI it was 32.7 µM (inactive).
In the case of `CC1=C(C)C(=O)OC(C(C)(O)C2(O)CC3OC34C3CC(O)C56OC5C=CC(=O)C6(C)C3CCC42C)C1` (configuration not stated), the GI50 in the assay on OVCAR-5 was 2.39 µM (inactive); in the assay on UACC-62 it was 0.617 µM (active); with RXF 393, 2.4 µM (inactive); with NCI-H226, 4.76 µM (inactive); in the assay with UO-31, 0.341 µM (active); in the assay with CAKI-1, 2.5 µM (inactive). Also, the GI50 is 1.21 µM (inactive) in the assay with MCF7; 2.59 µM (inactive) in the assay with SK-MEL-2; 1.24 µM (inactive) in the assay with RPMI-8226; 1.27 µM (inactive) in the assay on M14; 3.4 µM (inactive) with DU-145; 1.82 µM (inactive) in the assay on HOP-92. For the same compound, the GI50 is 0.586 µM (active) in the assay on MOLT-4; 1.38 µM (inactive) in the assay on HCT-116; 1.6 µM (inactive) in the assay with UACC-257; 1.15 µM (inactive) in the assay with MDA-MB-435; 2.16 µM (inactive) with KM12; 2.36 µM (inactive) in the assay with EKVX. The GI50 in the assay on LOX IMVI is 1.79 µM (inactive).
As for `COc1ccc(S(=O)(=O)N2C(=O)CCC2C(=O)NC(N)=O)cc1` (configuration not stated), the GI50 in the assay on OVCAR-5, in the assay on UACC-62, with NCI-H226, in the assay with UO-31, in the assay with SR and in the assay with CAKI-1 was > 100 µM (inactive) each time. Further, the GI50 in the assay with MCF7, in the assay on SK-MEL-2, in the assay with RPMI-8226, with M14, in the assay with DU-145 and in the assay on HOP-92 was > 100 µM (inactive) throughout. In addition, the GI50 in the assay with MOLT-4, in the assay with HCT-116, in the assay on UACC-257, with MDA-MB-435, with KM12 and in the assay with EKVX was > 100 µM (inactive) throughout. For the same compound, the GI50 in the assay on LOX IMVI was > 100 µM (inactive).
With `CCOC(=O)c1sc2c(c1OC(=O)c1ccco1)c(=O)n(-c1ccccc1)c(=S)n2-c1ccccc1`, the GI50 with OVCAR-5 was > 100 µM (inactive); with UACC-62 it was 26.2 µM (inactive); with RXF 393, 22.1 µM (inactive); in the assay on NCI-H226, 22.1 µM (inactive); with UO-31, 1.04 µM (active); in the assay with CAKI-1 it was 34.3 µM (inactive). For the same compound, the GI50 with MCF7 is 41.3 µM (inactive); in the assay on RPMI-8226 it was 30.6 µM (inactive); in the assay on M14, 28.2 µM (inactive); with DU-145, 52.6 µM (inactive); in the assay with HOP-92 it was 30.2 µM (inactive); with MOLT-4, 17.2 µM (inactive). The GI50 in the assay on HCT-116 is 29.7 µM (inactive); in the assay with UACC-257 it was 90.2 µM (inactive); in the assay with MDA-MB-435 it was 28.1 µM (inactive); in the assay with KM12 it was 33.4 µM (inactive); with EKVX, 21.3 µM (inactive); in the assay with LOX IMVI, 25.6 µM (inactive).
